{
  "source": "paper PMC10914731",
  "about": "“Homo-BacPROTAC-induced degradation of ClpC1 as a strategy against drug-resistant mycobacteria” (Nature Communications, 2024)",
  "key": {"[1]": {"molecular_target": "ClpC1 NTD protein (M. tuberculosis) (Mycobacterium tuberculosis, UniProt P9WPC9)", "sequence (P9WPC9 1-156, looked up, natural form)": "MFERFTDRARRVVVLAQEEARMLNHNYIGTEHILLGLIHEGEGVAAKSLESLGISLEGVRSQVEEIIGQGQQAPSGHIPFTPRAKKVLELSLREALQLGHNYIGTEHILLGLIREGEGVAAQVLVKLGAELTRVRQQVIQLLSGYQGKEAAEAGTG", "experiment": "biochemical", "type": "binding", "settings": "SPR"}, "[2]": {"type": "in vitro ADME, Mice", "summary_of_the_method": "(§1)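 Metabolic depletion in liver microsomes (0.5 mg/ml, 1 mM NADPH, 37 °C) starting from 1 µmol/l test compound, sampled at multiple times with acetonitrile quench. LC-MS/MS quantitation; half-life converted to %Qh.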"}, "[3]": {"type": "in vitro ADME, Rat", "summary_of_the_method": "as §1"}, "[4]": {"tested_on": "M. tuberculosis H37Rv (ATCC 27294)", "experiment": "microbe, parasite or virus in culture", "type": "cell-based"}, "Msm 607": {"tested_on": "Msm 607", "experiment": "microbe, parasite or virus in culture", "type": "cell-based"}, "Msm 700084": {"tested_on": "Msm 700084", "experiment": "microbe, parasite or virus in culture", "type": "cell-based"}, "Mycobacterium fortuitum": {"tested_on": "Mycobacterium fortuitum", "experiment": "microbe, parasite or virus in culture", "type": "cell-based"}, "[5]": {"tested_on": "Mycobacterium intracellulare", "experiment": "microbe, parasite or virus in culture", "type": "cell-based"}, "[6]": {"tested_on": "non-replicating cells of Mtb H37Rv", "type": "cell-based, Mycobacterium tuberculosis", "settings": "three replicate columns"}, "[7]": {"molecular_target": "ClpC1-NTD substrate, M. tuberculosis ClpC1P1P2 (Mycobacterium tuberculosis, UniProt P9WPC9)", "sequence (P9WPC5 whole entry)": "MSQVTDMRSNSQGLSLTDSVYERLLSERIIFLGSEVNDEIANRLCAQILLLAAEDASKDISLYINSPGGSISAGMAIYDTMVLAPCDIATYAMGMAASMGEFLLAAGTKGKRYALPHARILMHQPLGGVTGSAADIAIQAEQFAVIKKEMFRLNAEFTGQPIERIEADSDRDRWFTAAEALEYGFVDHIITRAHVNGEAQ", "sequence (P9WPC9 whole entry)": "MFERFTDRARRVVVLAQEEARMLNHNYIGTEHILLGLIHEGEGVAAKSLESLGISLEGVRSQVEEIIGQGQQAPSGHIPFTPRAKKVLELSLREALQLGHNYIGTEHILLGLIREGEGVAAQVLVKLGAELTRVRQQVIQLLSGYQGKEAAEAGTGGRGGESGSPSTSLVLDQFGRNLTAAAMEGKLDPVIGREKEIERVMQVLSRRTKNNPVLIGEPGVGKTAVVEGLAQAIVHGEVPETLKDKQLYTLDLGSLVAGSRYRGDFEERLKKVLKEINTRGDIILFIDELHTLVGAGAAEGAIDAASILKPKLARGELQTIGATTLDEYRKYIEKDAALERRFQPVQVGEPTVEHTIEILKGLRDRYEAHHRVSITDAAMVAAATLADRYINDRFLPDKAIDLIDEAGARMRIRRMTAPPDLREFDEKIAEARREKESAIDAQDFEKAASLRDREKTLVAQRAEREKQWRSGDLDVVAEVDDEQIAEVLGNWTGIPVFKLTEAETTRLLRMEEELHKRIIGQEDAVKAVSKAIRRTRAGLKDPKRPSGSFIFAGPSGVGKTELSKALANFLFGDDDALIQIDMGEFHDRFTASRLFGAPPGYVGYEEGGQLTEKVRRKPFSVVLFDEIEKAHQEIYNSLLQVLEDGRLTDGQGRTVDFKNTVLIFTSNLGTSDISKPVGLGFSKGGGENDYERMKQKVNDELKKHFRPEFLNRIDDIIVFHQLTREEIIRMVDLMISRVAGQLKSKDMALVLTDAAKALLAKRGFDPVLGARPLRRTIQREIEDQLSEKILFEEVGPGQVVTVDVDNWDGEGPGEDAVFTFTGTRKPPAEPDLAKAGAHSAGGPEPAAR", "sequence (P9WPC3 whole entry, further chain)": "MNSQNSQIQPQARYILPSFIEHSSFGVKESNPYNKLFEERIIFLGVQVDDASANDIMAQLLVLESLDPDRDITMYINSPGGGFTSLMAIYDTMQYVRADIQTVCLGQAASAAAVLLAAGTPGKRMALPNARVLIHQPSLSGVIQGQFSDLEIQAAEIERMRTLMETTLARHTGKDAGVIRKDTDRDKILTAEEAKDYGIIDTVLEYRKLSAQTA", "experiment": "biochemical", "type": "biochemical", "settings": "Mtb"}, "[8]": {"molecular_target": "endogenous ClpC1 in Msm #607 cells (Mycolicibacterium smegmatis, UniProt A0R574)", "sequence (A0R574 whole entry)": "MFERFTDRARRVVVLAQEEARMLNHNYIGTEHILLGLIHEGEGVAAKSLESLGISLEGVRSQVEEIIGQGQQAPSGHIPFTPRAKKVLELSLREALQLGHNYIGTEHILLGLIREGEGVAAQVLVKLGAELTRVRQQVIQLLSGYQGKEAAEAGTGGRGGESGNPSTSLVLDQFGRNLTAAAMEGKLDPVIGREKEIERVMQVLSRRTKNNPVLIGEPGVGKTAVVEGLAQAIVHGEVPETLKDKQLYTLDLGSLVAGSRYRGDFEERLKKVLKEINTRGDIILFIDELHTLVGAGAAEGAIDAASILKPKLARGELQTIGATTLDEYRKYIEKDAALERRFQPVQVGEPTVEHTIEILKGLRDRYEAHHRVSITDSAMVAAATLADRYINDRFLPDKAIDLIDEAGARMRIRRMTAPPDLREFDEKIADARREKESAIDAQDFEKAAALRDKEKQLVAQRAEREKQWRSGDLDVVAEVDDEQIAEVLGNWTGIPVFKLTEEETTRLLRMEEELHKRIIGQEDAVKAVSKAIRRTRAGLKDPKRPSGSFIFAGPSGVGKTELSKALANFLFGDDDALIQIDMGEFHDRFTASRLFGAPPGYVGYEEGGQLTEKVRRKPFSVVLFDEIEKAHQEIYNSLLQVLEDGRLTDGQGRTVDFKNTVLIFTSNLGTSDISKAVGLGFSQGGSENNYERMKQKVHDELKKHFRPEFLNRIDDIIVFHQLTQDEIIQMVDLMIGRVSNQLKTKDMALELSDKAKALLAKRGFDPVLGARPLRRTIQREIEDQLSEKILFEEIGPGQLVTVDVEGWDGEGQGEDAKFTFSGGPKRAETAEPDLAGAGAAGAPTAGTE", "type": "cell-based, M. smegmatis"}, "[9]": {"settings": "Experiment 2, three replicate columns"}},
  "note": "Values joined by “and” are separate entries in the source; they are usually repeats but may differ in a detail not shown here. Equal values may be shown once. Read-outs that look alike come from different tables or passages of the source. Where a SMILES comes first, the peptide text is derived from it. [ ]: non-standard residue; d: D form. NMeLeu(5-OH,4R) = CN[C@@H](C[C@@H](C)CO)C(=O)O; Phe(βR-OMe) = CO[C@H](c1ccccc1)[C@H](N)C(=O)O; Trp(1-Me) = Cn1cc(C[C@H](N)C(=O)O)c2ccccc21; NMeL = CN[C@@H](CC(C)C)C(=O)O; Pra = C#CC[C@H](N)C(=O)O",
  "data": [
    {"smiles": "C#CC[C@@H]1NC(=O)[C@H](CC(C)C)N(C)C(=O)[C@H](C(C)C)NC(=O)[C@H]([C@H](OC)c2ccccc2)NC(=O)[C@H](C)NC(=O)[C@H](C[C@@H](C)CO)N(C)C(=O)[C@H](Cc2cn(C)c3ccccc23)NC1=O", "note": "[Compound 10] (cyclo(A[Phe(βR-OMe)]V[NMeL][Pra][Trp(1-Me)][NMeLeu(5-OH,4R)]))", "values": [
      {"measurement": "Kd", "setting": "[1]; individual measurements (source data), read-out: KD ClpC1-NTD", "result": "4.65 nM and 4.5 nM and 3.27 nM and 3.4 nM"},
      {"measurement": "Kd", "setting": "[1]; read-out: ClpC1-NTD KD Mean ± SD", "result": "4 ± 0.7", "unit": "nM"},
      {"measurement": "Microsomal Stability Mouse QH", "setting": "[2]; Mouse", "result": ">88.400", "unit": "%"},
      {"measurement": "Microsomal Stability Mice", "setting": "[2]; clearance in microsomes", "result": "> 88", "unit": "%Qh"},
      {"measurement": "Microsomal Stability Rat QH", "setting": "[3]; Rat", "result": 84.600, "unit": "%"},
      {"measurement": "Microsomal Stability Rat", "setting": "[3]; clearance in microsomes", "result": 85, "unit": "%Qh"},
      {"measurement": "MIC", "setting": "[4]; M. tuberculosis H37Rv 27294, single well replicates, read-out: MIC", "result": 3.125, "unit": "µM"},
      {"measurement": "MIC", "setting": "[4]; Mycobacterium tuberculosis, M. tuberculosis H37Rv 27294, single well replicates, read-out: MIC", "result": 3.12, "unit": "µM"},
      {"measurement": "MIC", "setting": "[4]; Mycobacterium tuberculosis, M. tuberculosis H37Rv strain, read-out: MIC Mtb H37Rv Mean ± SD", "result": 3.1, "unit": "µM"},
      {"measurement": "MIC", "setting": "[4]; Mycobacterium tuberculosis, Mtb H37Rv (Supplementary Table 2), read-out: MIC Mtb", "result": 3.1, "unit": "µM"},
      {"measurement": "MIC", "setting": "[4]; Mycobacterium tuberculosis, Mtb H37Rv, mean ± SD, n = 3 well replicates, read-out: MIC", "result": 3.1, "unit": "µM"},
      {"measurement": "MIC", "setting": "[4]; Mycobacterium tuberculosis, Set 1, read-out: MIC (Mtb H37Rv) Set 1", "result": "3.13 µM and 2.85 µg/mL"},
      {"measurement": "MIC", "setting": "[4]; Mycobacterium tuberculosis, Set 2, read-out: MIC (Mtb H37Rv) Set 2", "result": "3.13 µM and 2.85 µg/mL"},
      {"measurement": "MIC", "setting": "[4]; Mycobacterium tuberculosis, Set 3, done at a different day than Set 1 and Set 2, read-out: MIC (Mtb H37Rv) Set 3", "result": "3.13 µM and 2.85 µg/mL"},
      {"measurement": "MIC", "setting": "[4]; Mycobacterium tuberculosis, individual example (Supplementary Table 11), read-out: MIC Mtb H37Rv", "result": "3.1 µM and 2.9 µg/mL"},
      {"measurement": "MIC", "setting": "[4]; Mycobacterium tuberculosis, individual measurements (source data), read-out: Mtb MIC", "result": 3.12, "unit": "µM"},
      {"measurement": "MIC", "setting": "[4]; Mycobacterium tuberculosis, mean of 3 experiments +/- SD, unit taken from the sets above in the same table, read-out: MIC data (Mtb H37Rv) (+/- SD)", "result": "3.13 µM and 2.85 µg/mL"},
      {"measurement": "MIC", "setting": "[4]; Mycobacterium tuberculosis, single determinations, read-out: Mtb MIC", "result": 3.12, "unit": "µM"},
      {"measurement": "MIC", "setting": "[4]; individual measurements (source data), read-out: Mtb MIC", "result": 3.125, "unit": "µM"},
      {"measurement": "MIC", "setting": "Msm 607; Mycolicibacterium smegmatis, 607, read-out: MIC Msm 607", "result": 3.1, "unit": "µM"},
      {"measurement": "MIC", "setting": "Msm 607; Mycolicibacterium smegmatis, 607, read-out: MIC Msm #607, individual example (Supplementary Table 11)", "result": "6.3 µM and 5.7 µg/mL"},
      {"measurement": "MIC", "setting": "Msm 607; Mycolicibacterium smegmatis, 607, read-out: Msm 607 MIC, single determinations", "result": 3.12, "unit": "µM"},
      {"measurement": "MIC", "setting": "Msm 607; Mycolicibacterium smegmatis, ATCC607, Set-1, read-out: MIC (Msm ATCC607) Set-1", "result": "3.12 µM and 2.85 µg/mL"},
      {"measurement": "MIC", "setting": "Msm 607; Mycolicibacterium smegmatis, ATCC607, Set-2, read-out: MIC (Msm ATCC607) Set-2", "result": "6.25 µM and 5.71 µg/mL"},
      {"measurement": "MIC", "setting": "Msm 607; Mycolicibacterium smegmatis, ATCC607, Set-3, done at a different day than Set 1 and Set 2, read-out: MIC (Msm ATCC607) Set-3", "result": "3.12 µM and 2.85 µg/mL"},
      {"measurement": "MIC", "setting": "Msm 607; Mycolicibacterium smegmatis, ATCC607, mean of 3 experiments ± SD, read-out: MIC including standard deviations (Msm ATCC607)", "result": "4.16 µM and 3.8 µg/mL"},
      {"measurement": "MIC", "setting": "Msm 700084; Mycolicibacterium smegmatis, 700084, single determinations, read-out: Msm 700084 MIC", "result": 25, "unit": "µM"},
      {"measurement": "MIC", "setting": "Msm 700084; Mycolicibacterium smegmatis, 700084, read-out: MIC Msm 700084", "result": 25, "unit": "µM"},
      {"measurement": "MIC", "setting": "Mycobacterium fortuitum; Experiment 1, read-out: MIC Mycobacterium fortuitum", "result": 12.5, "unit": "µM"},
      {"measurement": "MIC (µg/ml) Mycobacterium fortuitum", "setting": "Mycobacterium fortuitum; [9]", "result": 11.41, "unit": "µg/mL"},
      {"measurement": "MIC", "setting": "Mycobacterium fortuitum; Experiment 2, three replicate columns, read-out: MIC (µM) Mycobacterium fortuitum", "result": 12.5, "unit": "µM"},
      {"measurement": "MIC", "setting": "Mycobacterium fortuitum; Mycolicibacterium fortuitum, Experiment 1, read-out: MIC Mycobacterium fortuitum", "result": 11.4, "unit": "µg/mL"},
      {"measurement": "MIC", "setting": "Mycobacterium fortuitum; Mycolicibacterium fortuitum, Experiment 2, three replicate columns, read-out: MIC (µM) Mycobacterium fortuitum", "result": 12.5, "unit": "µM"},
      {"measurement": "MIC", "setting": "Mycobacterium fortuitum; Mycolicibacterium fortuitum, Experiment 2, three replicate columns, read-out: MIC (µg/ml) Mycobacterium fortuitum", "result": 11.4, "unit": "µg/mL"},
      {"measurement": "MIC", "setting": "Mycobacterium fortuitum; Mycolicibacterium fortuitum, mean ± SD, read-out: MIC Mycobacterium fortuitum", "result": 12.5, "unit": "µM"},
      {"measurement": "MIC", "setting": "[5]; Experiment 1, read-out: MIC Mycobacterium intracellulare", "result": 12.5, "unit": "µM"},
      {"measurement": "MIC (µg/ml) Mycobacterium intracellulare", "setting": "[5]; [9]", "result": 11.41, "unit": "µg/mL"},
      {"measurement": "MIC", "setting": "[5]; Experiment 2, three replicate columns, read-out: MIC (µM) Mycobacterium intracellulare", "result": 12.5, "unit": "µM"},
      {"measurement": "MIC", "setting": "[5]; Mycobacterium intracellulare, Experiment 1, read-out: MIC Mycobacterium intracellulare", "result": 11.4, "unit": "µg/mL"},
      {"measurement": "MIC", "setting": "[5]; Mycobacterium intracellulare, Experiment 2, three replicate columns, read-out: MIC (µM) Mycobacterium intracellulare", "result": 12.5, "unit": "µM"},
      {"measurement": "MIC", "setting": "[5]; Mycobacterium intracellulare, Experiment 2, three replicate columns, read-out: MIC (µg/ml) Mycobacterium intracellulare", "result": 11.4, "unit": "µg/mL"},
      {"measurement": "MIC", "setting": "[5]; Mycobacterium intracellulare, mean ± SD, read-out: MIC Mycobacterium intracellulare", "result": 12.5, "unit": "µM"},
      {"measurement": "Supplementary Figure 2 dose-response value, starvation-induced non-replicating H37Rv cells", "setting": "[6]; Conc. 0.0488281 µM", "result": "91.338 and 78.4072 and 99.8789"},
      {"measurement": "Supplementary Figure 2 dose-response value, starvation-induced non-replicating H37Rv cells", "setting": "[6]; Conc. 0.0976562 µM", "result": "83.6098 and 87.8245 and 85.6175"},
      {"measurement": "Supplementary Figure 2 dose-response value, starvation-induced non-replicating H37Rv cells", "setting": "[6]; Conc. 0.195312 µM", "result": "83.554 and 88.4379 and 86.5417"},
      {"measurement": "Supplementary Figure 2 dose-response value, starvation-induced non-replicating H37Rv cells", "setting": "[6]; Conc. 0.390625 µM", "result": "81.2435 and 84.4384 and 85.1554"},
      {"measurement": "Supplementary Figure 2 dose-response value, starvation-induced non-replicating H37Rv cells", "setting": "[6]; Conc. 0.78125 µM", "result": "80.3114 and 85.7211 and 82.4466"},
      {"measurement": "Supplementary Figure 2 dose-response value, starvation-induced non-replicating H37Rv cells", "setting": "[6]; Conc. 1.5625 µM", "result": "81.8012 and 82.096 and 79.8971"},
      {"measurement": "Supplementary Figure 2 dose-response value, starvation-induced non-replicating H37Rv cells", "setting": "[6]; Conc. 3.125 µM", "result": "77.0129 and 81.0842 and 77.6981"},
      {"measurement": "Supplementary Figure 2 dose-response value, starvation-induced non-replicating H37Rv cells", "setting": "[6]; Conc. 6.25 µM", "result": "66.8627 and 77.4193 and 82.598"},
      {"measurement": "Supplementary Figure 2 dose-response value, starvation-induced non-replicating H37Rv cells", "setting": "[6]; Conc. 25 µM", "result": "73.1408 and 72.615 and 70.6073"},
      {"measurement": "Supplementary Figure 2 dose-response value, starvation-induced non-replicating H37Rv cells", "setting": "[6]; Conc. 50 µM", "result": "65.1656 and 61.5724 and 59.0468"},
      {"measurement": "Supplementary Figure 2 dose-response value, starvation-induced non-replicating H37Rv cells", "setting": "[6]; Conc. 100 µM", "result": "53.5574 and 51.9958 and 57.3099"},
      {"measurement": "DC50", "setting": "[7]; Measurement 1-4, read-out: DC50, single measurements", "result": "> 100000", "unit": "nM"},
      {"measurement": "DC50", "setting": "[7]; mean of the measurements, read-out: DC50, Mean", "result": "> 100000", "unit": "nM"},
      {"measurement": "ClpC1 peak area", "setting": "[8]; 100 µM, Figure 5c, well replicates of 3 experiments", "result": "412581 and 373241 and 483939 and 462615 and 61275.5 and 294306 and 484139 and 455205 and 481589"},
      {"measurement": "intracellular degradation of ClpC1", "setting": "[8]; Msm #607, 24 h, result in words", "result": "did not induce degradation of ClpC1"}
    ]}
  ]
}
